Measurements: US11267795B2, “Crystalline PPAR-delta agonist” (Reneo Pharmaceuticals, Inc., priority 2020, dated 2022)
Marks after values point to notes of the source that are not given here.

Tests used:
[1] = Stability of solid forms on drying, vacuum or standing (XRPD); format: physicochemical
Description: Crystalline Hydrate Form 2 of Compound II was portioned into two and half was placed in the vacuum oven at RT. After 24 h the sample was analyzed by XRPD. Some small differences between the XRPD pattern and the Form 2 reference were noted. After 4 days in the vacuum oven complete conversion was observed.

mice = conditions: cited from earlier work
[2] = Stability of solid state forms under static storage, re-analysed by XRPD; format: physicochemical
Description: Crystalline Form 1 of Compound II (4 g) was placed in a crystallization dish and stored in a stability chamber at 25° C./97% RH. XRPD analysis was regularly performed to verify the conversion to Form 2. Complete conversion was observed after 4 weeks at 25° C./97% RH.
Samples were assessed for stability under ambient or static storage conditions of 25° C./97% RH and 40° C./75% RH for 7 or 10 days. The samples were then re-analyzed by XRPD.
Results of the subsequent XRPD analysis for the crystalline forms are described in the following table: […]

[3] = Variable temperature XRPD (heating); format: physicochemical; conditions: heating to 110° C.
Description: For variable temperature (VT-XRPD) experiments the samples were prepared and analyzed in an Anton Paar chromed sample holder. A heating/cooling rate of 10° C./min was used with a 2 min isothermal hold before the measurement started. The measurement parameters are as per the standard screening data collection method (detailed above). Measurements were taken at the following temperatures: […]

[4] = Gravimetric Vapor Sorption (GVS) with XRPD re-analysis; format: physicochemical; conditions: for Reversible Water Uptake between 0-90% RH: GVS, 25° C.; for Solid State Form After GVS (XRPD): after isotherm experiment at 90% RH and 25° C.
Description: Sorption isotherms were obtained using a SMS DVS Intrinsic moisture sorption analyzer, controlled by DVS Intrinsic Control software. The sample temperature was maintained at 25° C. by the instrument controls. The humidity was controlled by mixing streams of dry and wet nitrogen, with a total flow rate of 200 ml/min. The relative humidity was measured by a calibrated Rotronic probe (dynamic range of 1.0-100% RH), located near the sample. The weight change, (mass relaxation) of the sample as a function of % RH was constantly monitored by a microbalance (accuracy ±0.005 mg).
Typically, 5-30 mg of sample was placed in a tared mesh stainless steel basket under ambient conditions. The sample was loaded and unloaded at 40% RH and 25° C. (typical room conditions). A moisture sorption isotherm was performed as outlined below (2 scans per complete cycle). The standard isotherm was performed at 25° C. at 10% RH intervals over a 0-90% RH range. Typically, a double cycle (4 scans) was carried out. Data analysis was carried out within Microsoft Excel using the DVS Analysis Suite.
The method for SMS DVS Intrinsic experiments is outlined in the following table:
Reversible water uptake for the crystalline forms and patterns as determined by Gravimetric Vapor Sorption (GVS) are as described in the following table:
The samples were recovered after completion of the isotherm experiment at […] and 25° C. and re-analyzed by XRPD.

Compound: Cc1cc(OC/C=C(/c2ccc(F)cc2)c2ccc(C#CCN3CCOCC3)cc2)ccc1OCC(=O)[O-].[Na+] [Pattern 5, sodium (E)-2-(4-((3-(4-fluorophenyl)-3-(4-(3-morpholinoprop-1-yn-1-yl)phenyl)allyl)oxy)-2-methylphenoxy)acetate]
- solid form stability [1]: unstable

Compound: Cc1cc(SCc2sc(-c3ccc(C(F)(F)F)cc3)nc2C)ccc1OCC(=O)O [GW1516]
- energy substrate usage (mice; 8 weeks treatment): a clear shift in energy substrate usage from glucose to fatty acid oxidation
- physical performance (mice; in combination with exercise, 4 weeks): enhanced physical performance

Compound: Cc1cc(OC/C=C(/c2ccc(F)cc2)c2ccc(C#CCN3CCOCC3)cc2)ccc1OCC(=O)[O-].[Na+] [Pattern 8, sodium (E)-2-(4-((3-(4-fluorophenyl)-3-(4-(3-morpholinoprop-1-yn-1-yl)phenyl)allyl)oxy)-2-methylphenoxy)acetate]
- solid form stability on drying [1]: converts to Form 1

Compound: Cc1cc(OC/C=C(/c2ccc(F)cc2)c2ccc(C#CCN3CCOCC3)cc2)ccc1OCC(=O)[O-].[Na+] [Form 4, sodium (E)-2-(4-((3-(4-fluorophenyl)-3-(4-(3-morpholinoprop-1-yn-1-yl)phenyl)allyl)oxy)-2-methylphenoxy)acetate]
- solid state form by XRPD after storage ([2]; 25° C./97% RH/7 days): Form 2
- solid state form by XRPD after storage ([2]; 40° C./75% RH/7 days): Form 1
- XRPD after heating [3]: unchanged XRPD
- Reversible Water Uptake between 0-90% RH [4]: ~23%
- Solid State Form After GVS (XRPD) [4]: Form 2

Compound: Cc1cc(OC/C=C(/c2ccc(F)cc2)c2ccc(C#CCN3CCOCC3)cc2)ccc1OCC(=O)[O-].[Na+] [amorphous, sodium (E)-2-(4-((3-(4-fluorophenyl)-3-(4-(3-morpholinoprop-1-yn-1-yl)phenyl)allyl)oxy)-2-methylphenoxy)acetate]
- change in XRPD after storage ([2]; ambient storage conditions for 24 hours, 48 hours, 7 days, or 10 days): no change
- change in XRPD after storage ([2]; static storage of 40° C./75% RH for 10 days): no change

Compound: Cc1cc(OC/C=C(/c2ccc(F)cc2)c2ccc(C#CCN3CCOCC3)cc2)ccc1OCC(=O)[O-].[Na+] [Form 5, sodium (E)-2-(4-((3-(4-fluorophenyl)-3-(4-(3-morpholinoprop-1-yn-1-yl)phenyl)allyl)oxy)-2-methylphenoxy)acetate]
- Reversible Water Uptake between 0-90% RH [4]: ~11%
- Solid State Form After GVS (XRPD) [4]: Form 1
- solid form stability on drying [1]: converts to Form 1

Compound: Cc1cc(OC/C=C(/c2ccc(F)cc2)c2ccc(C#CCN3CCOCC3)cc2)ccc1OCC(=O)[O-].[Na+] [Form 3, sodium (E)-2-(4-((3-(4-fluorophenyl)-3-(4-(3-morpholinoprop-1-yn-1-yl)phenyl)allyl)oxy)-2-methylphenoxy)acetate]
- solid state form by XRPD after storage ([2]; 40° C./75% RH/7 days): Form 1
- Reversible Water Uptake between 0-90% RH [4]: ~9.0%
- Solid State Form After GVS (XRPD) [4]: Form 1
- solid form stability on drying [1]: converts to Form 1
- solid form stability on standing ([1]; standing in ambient conditions): converts to Form 1

Compound: Cc1cc(OC/C=C(/c2ccc(F)cc2)c2ccc(C#CCN3CCOCC3)cc2)ccc1OCC(=O)[O-].[Na+] [Pattern 9, sodium (E)-2-(4-((3-(4-fluorophenyl)-3-(4-(3-morpholinoprop-1-yn-1-yl)phenyl)allyl)oxy)-2-methylphenoxy)acetate]
- Reversible Water Uptake between 0-90% RH [4]: ~27%
- Solid State Form After GVS (XRPD) [4]: Unchanged (Pattern 9)

Compound: Cc1cc(OC/C=C(/c2ccc(F)cc2)c2ccc(C#CCN3CCOCC3)cc2)ccc1OCC(=O)[O-].[Na+] [Form 1, sodium (E)-2-(4-((3-(4-fluorophenyl)-3-(4-(3-morpholinoprop-1-yn-1-yl)phenyl)allyl)oxy)-2-methylphenoxy)acetate]
- solid state form by XRPD after storage ([2]; 25° C./97% RH/7 days): Form 2
- solid state form by XRPD after storage ([2]; 40° C./75% RH/7 days): Unchanged (Form 1)
- time to complete conversion to Form 2 ([2]; stability chamber at 25° C./97% RH, 4 g): 4 weeks
- Reversible Water Uptake between 0-90% RH [4]: ~13.0% †
- Solid State Form After GVS (XRPD) [4]: Unchanged (Form 1)

Compound: Cc1cc(OC/C=C(/c2ccc(F)cc2)c2ccc(C#CCN3CCOCC3)cc2)ccc1OCC(=O)[O-].[Na+] [Form 2, sodium (E)-2-(4-((3-(4-fluorophenyl)-3-(4-(3-morpholinoprop-1-yn-1-yl)phenyl)allyl)oxy)-2-methylphenoxy)acetate]
- solid state form by XRPD after storage ([2]; 25° C./97% RH/7 days): Unchanged (Form 2)
- solid state form by XRPD after storage ([2]; 40° C./75% RH/7 days): Unchanged (Form 2)
- Reversible Water Uptake between 0-90% RH [4]: ~25%
- Solid State Form After GVS (XRPD) [4]: Unchanged (Form 2)
- time to complete conversion to Pattern 9 ([1]; vacuum oven at RT): 4 days
